What was measured:
rat corpora cavernosa = assay: Pharmacodynamic test: intracavernous pressure on electric stimulation of the cavernous nerve; type: in vivo; conditions: anesthetized male SD rats, 5 mg/kg orally, ratio of ICP to MBp
Procedure: The test was carried out based on the methods reported (International Journal of Impotence Research 2002, 14, 251 and The Journal of Urology 1992, 147, 1124). After fasted for 12 hours, 4 male SD rats were randomized into each group. After anesthetizing the rats with sodium pentobarbital (50 mg/kg, i.p.), the penile skin was incised and the prepuce was degloved to expose completely the corpora cavernosa (CC). A needle linked to an electrophysiology instrument was inserted into the CC on the right side in order to measure the intracavernous pressure (ICP). The right carotid artery was cannulated in a similar manner to the polyethylene tube in order to monitor the mean blood pressure (MBp) continuously. […] Electric stimulation was performed at 2 Hz, for 60 s with a pulse duration of 5 ms and 3V using a stimulator. The compounds were administrated orally (5 mg/kg). The change of the ICP and MBp were monitored continuously before and after the administration. The effect of the compounds on the erection induced by electric stimulation was evaluated by the ratio of ICP to MBp. The parameter (ICP/MBp) was used to estimate the influence of the compounds to the rat corpora cavernosa. […] The statistical significance of the differences between groups was calculated using Duncan's multiple comparison.

PDE3 = target: T1, PDE3 (Homo sapiens, UniProt Q14432); assay: PDE3 inhibitory activity test (scintillation proximity assay); type: biochemical; conditions: PDE3 isolated from human platelets
T1 construct: from tissue; host or cells: human platelets
Source text: (§1) The PDE5 and PDE3 were isolated form human platelets, while the PDE6 was isolated form bovine retinas. The enzyme inhibitory activity test conducted immediately after the enzymes had been isolated, using a scintillation proximity assay for the direct detection of AMP/GMP by the TRKQ7100 and TRKQ7090 kit. In summary, the effect of PDE inhibitors was investigated by assaying a fixed amount of enzyme in the presence of varying inhibitor concentrations and low substrate. The final assay volume was made up to 100 μl with 10 μl assay buffer (50 mM Tris/HCl PH 7.5, 8.3 mM MgCl2, 1.7 mM EGTA), and water. Reactions were initiated with enzyme, incubate for 30 minutes at 30° C. and terminated with 50 μl yttrium silicate SPA beads suspension containing zinc sulphate. Shook for 20 minutes and settled for 30 minutes in the dark, then counted on a BECKMAN LS6500 MULTI-PURPOSE SCINTILLATION COUNTER. The IC50 value for the compounds according the present invention was calculated according the counts.
PDE3 is a PDE isozyme distributed mainly in heart, so the inhibiting of PDE3 may lead to side effects associated with heart. Accordingly, the inhibitory activities of some example compounds according to the invention against PDE3 were determined.

[1] = target: T2, PDE5 from human platelets (Homo sapiens, UniProt O76074); assay: PDE5 inhibitory activity test (scintillation proximity assay); type: biochemical
T2 construct: from tissue; host or cells: human platelets

male KM mouse = assay: Acute oral toxicity test; type: in vivo; conditions: single oral dose of 3 g/kg, 10 or 11 mice per group
Procedure: In this test male KM mouse weighting 18-22 g were used, and 10 or 11 mouse were assigned randomly to each group. […] The animals were fasted for 12 hours before the administration.

PDE6 from bovine retina = target: T3, PDE6 from bovine retina (Bos taurus, UniProt P11541+P23439); assay: PDE6 inhibitory activity test (scintillation proximity assay); type: biochemical; conditions: for IC50: PDE6 from bovine retina; for PDE6 IC50/PDE5 IC50: selectivity of PDE5 versus PDE6
T3 construct: the PDE6 was isolated form bovine retinas; from tissue; host or cells: bovine retina
T3 sequence (P11541 2-856 limits assumed): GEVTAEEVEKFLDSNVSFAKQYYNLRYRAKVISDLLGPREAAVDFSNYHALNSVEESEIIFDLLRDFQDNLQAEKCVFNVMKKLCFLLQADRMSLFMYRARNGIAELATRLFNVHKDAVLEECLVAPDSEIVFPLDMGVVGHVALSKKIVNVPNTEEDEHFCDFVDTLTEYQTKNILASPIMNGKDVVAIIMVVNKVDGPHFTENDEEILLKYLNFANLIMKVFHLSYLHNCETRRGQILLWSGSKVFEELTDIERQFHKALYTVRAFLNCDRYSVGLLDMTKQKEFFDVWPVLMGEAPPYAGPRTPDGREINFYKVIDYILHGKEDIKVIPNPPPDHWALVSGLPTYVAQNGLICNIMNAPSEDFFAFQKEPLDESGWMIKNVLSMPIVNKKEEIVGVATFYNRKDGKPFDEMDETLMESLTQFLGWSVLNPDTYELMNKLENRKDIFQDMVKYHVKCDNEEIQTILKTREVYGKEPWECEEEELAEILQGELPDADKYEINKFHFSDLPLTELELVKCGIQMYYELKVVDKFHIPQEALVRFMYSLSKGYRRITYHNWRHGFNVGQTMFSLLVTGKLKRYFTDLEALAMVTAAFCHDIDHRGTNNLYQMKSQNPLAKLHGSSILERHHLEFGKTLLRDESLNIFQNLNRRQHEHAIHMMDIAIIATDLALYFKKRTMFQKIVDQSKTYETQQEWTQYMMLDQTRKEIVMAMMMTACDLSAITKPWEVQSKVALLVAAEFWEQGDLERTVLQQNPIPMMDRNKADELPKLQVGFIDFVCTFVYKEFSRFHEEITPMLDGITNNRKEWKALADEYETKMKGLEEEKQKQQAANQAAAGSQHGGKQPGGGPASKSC
T3 sequence (P23439 2-850 limits assumed): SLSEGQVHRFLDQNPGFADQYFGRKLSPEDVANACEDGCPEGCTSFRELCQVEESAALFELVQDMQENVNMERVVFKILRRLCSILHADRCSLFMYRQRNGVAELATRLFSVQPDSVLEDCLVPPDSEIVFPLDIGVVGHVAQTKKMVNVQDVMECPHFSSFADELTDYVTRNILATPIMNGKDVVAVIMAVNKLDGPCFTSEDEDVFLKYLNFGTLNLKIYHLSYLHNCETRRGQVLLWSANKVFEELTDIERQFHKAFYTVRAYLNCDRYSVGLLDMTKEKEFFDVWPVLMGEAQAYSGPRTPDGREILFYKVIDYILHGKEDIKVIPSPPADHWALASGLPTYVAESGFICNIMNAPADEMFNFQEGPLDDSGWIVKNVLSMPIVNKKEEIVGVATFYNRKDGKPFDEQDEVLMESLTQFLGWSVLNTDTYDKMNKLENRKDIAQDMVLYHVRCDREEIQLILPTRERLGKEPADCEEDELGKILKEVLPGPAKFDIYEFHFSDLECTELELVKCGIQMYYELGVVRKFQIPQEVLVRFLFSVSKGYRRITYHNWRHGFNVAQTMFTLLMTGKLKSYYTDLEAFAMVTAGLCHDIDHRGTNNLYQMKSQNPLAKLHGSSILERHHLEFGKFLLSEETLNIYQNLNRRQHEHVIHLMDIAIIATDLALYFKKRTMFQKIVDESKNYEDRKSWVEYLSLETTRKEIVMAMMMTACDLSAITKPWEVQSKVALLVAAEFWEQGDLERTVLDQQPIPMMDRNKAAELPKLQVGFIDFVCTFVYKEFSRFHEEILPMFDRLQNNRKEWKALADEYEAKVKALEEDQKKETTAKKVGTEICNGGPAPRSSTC
Source text: as §1

[2] = PDE5 in the PDE6 selectivity table

T1 sequence (Q14432 whole entry): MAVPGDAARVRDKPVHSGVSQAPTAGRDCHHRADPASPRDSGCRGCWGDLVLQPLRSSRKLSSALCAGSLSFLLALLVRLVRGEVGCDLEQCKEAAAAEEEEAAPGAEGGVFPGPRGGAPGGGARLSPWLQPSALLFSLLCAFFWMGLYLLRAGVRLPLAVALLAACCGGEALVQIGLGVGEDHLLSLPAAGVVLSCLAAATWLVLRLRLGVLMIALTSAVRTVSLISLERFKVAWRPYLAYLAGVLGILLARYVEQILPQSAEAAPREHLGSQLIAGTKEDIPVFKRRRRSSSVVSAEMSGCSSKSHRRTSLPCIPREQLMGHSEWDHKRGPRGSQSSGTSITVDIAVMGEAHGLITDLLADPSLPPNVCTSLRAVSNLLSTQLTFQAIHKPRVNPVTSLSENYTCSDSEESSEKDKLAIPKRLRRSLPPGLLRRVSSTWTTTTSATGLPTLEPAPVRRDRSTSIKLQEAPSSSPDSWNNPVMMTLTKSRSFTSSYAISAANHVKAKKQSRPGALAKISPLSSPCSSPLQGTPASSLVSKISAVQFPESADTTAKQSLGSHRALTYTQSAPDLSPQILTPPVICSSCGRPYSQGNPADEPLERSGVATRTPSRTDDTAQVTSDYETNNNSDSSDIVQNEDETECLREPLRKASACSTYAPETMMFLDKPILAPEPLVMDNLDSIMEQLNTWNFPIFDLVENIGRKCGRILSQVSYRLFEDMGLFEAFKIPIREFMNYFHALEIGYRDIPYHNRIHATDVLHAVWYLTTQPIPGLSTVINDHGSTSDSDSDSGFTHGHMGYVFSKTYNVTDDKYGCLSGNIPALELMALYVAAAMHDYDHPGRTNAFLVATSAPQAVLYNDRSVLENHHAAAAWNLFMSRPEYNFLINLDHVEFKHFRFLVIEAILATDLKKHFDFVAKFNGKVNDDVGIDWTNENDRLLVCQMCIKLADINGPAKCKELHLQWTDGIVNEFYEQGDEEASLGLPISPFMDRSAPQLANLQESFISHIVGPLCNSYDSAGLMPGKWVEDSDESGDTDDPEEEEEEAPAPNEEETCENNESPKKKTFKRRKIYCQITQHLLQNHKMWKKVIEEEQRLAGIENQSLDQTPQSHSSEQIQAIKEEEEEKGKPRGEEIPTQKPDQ

CCCOc1ccc(S(=O)(=O)N(CC)CCCOC(C)=O)cc1-c1nc2c(CCC)nn(C)c2c(=O)[nH]1 [Example 97, 1-methyl-5-{2-propoxy-5-[[1-ethyl-1-(3-acetoxypropyl)]amidosulfonyl]phenyl}-3-n-propyl-1,6-dihydro-7H-pyrazolo[4,3-d]pyrimidin-7-one]
ICP/BP (rat corpora cavernosa): 72.0 ± 13.5 | IC50 (PDE3): 5120 nM | IC50 ([1]; PDE5 from human platelets): 13.1 nM | Number of death (male KM mouse): 5 | mortality rate (male KM mouse): 45%

CCCOc1ccc(S(=O)(=O)N(CCN2CCOCC2)Cc2cccnc2)cc1-c1nc2c(CCC)nn(C)c2c(=O)[nH]1 [Example 62, 1-methyl-5-{2-propoxy-5-[[1-(3-pyridylmethyl)-1-(2-morpholin-1-yl)ethyl]amidosulfonyl]phenyl}-3-n-propyl-1,6-dihydro-7H-pyrazolo[4,3-d]pyrimidin-7-one]
ICP/BP (rat corpora cavernosa): 69.8 ± 12.2 | IC50 (PDE3): 2860 nM | Number of death (male KM mouse): 6 | mortality rate (male KM mouse): 60%

CCCOc1ccc(S(=O)(=O)N(CCOC(C)=O)CCN2CCOCC2)cc1-c1nc2c(CCC)nn(C)c2c(=O)[nH]1 [Example 96, 1-methyl-5-{2-propoxy-5-[[1-(2-acetoxyethyl)-1-(2-morpholin-1-yl)ethyl]amidosulfonyl]phenyl}-3-n-propyl-1,6-dihydro-7H-pyrazolo[4,3-d]pyrimidin-7-one]
ICP/BP (rat corpora cavernosa): 81.0 ± 9.5 | IC50 (PDE6 from bovine retina): 244 nM | PDE6 IC50/PDE5 IC50 (PDE6 from bovine retina): 57.7 | IC50 (PDE3): 12400 nM | IC50 ([1]; PDE5 from human platelets): 4.24 nM | IC50 [1, 2]: 4.24 nM | Number of death (male KM mouse): 0 | mortality rate (male KM mouse): 0%

CCCOc1ccc(S(=O)(=O)N(CCOCC)CCN2CCOCC2)cc1-c1nc2c(CCC)nn(C)c2c(=O)[nH]1 [Example 111, 1-methyl-5-{2-propoxy-5-[[1-(2-ethoxyethyl)-1-(2-morpholin-1-yl)ethyl]amidosulfonyl]phenyl}-3-n-propyl-1,6-dihydro-7H-pyrazolo[4,3-d]pyrimidin-7-one]
ICP/BP (rat corpora cavernosa): 89.1 ± 6.9 | IC50 (PDE3): 8730 nM | IC50 ([1]; PDE5 from human platelets): 6.83 nM | Number of death (male KM mouse): 0 | mortality rate (male KM mouse): 0%

CCCOc1ccc(S(=O)(=O)N(CCN2CCCC2)Cc2cccnc2)cc1-c1nc2c(CCC)nn(C)c2c(=O)[nH]1 [Example 89, 1-methyl-5-{2-propoxy-5-[[1-(3-pyridylmethyl)-1-(2-pyrrolidin-1-yl)ethyl]amidosulfonyl]phenyl}-3-n-propyl-1,6-dihydro-7H-pyrazolo[4,3-d]pyrimidin-7-one]
ICP/BP (rat corpora cavernosa): 70.9 ± 9.8 | IC50 (PDE6 from bovine retina): 215 nM | PDE6 IC50/PDE5 IC50 (PDE6 from bovine retina): 27.4 | IC50 ([1]; PDE5 from human platelets): 7.85 nM | IC50 [1, 2]: 7.85 nM | Number of death (male KM mouse): 5 | mortality rate (male KM mouse): 45%

CCCOc1ccc(S(=O)(=O)N(CC)CCN2CCOCC2)cc1-c1nc2c(CC)nn(C)c2c(=O)[nH]1 [Example 54, 1-methyl-5-{2-propoxy-5-[[1-ethyl-1-(2-morpholin-1-yl)ethyl]amidosulfonyl]phenyl}-3-ethyl-1,6-dihydro-7H-pyrazolo[4,3-d]pyrimidin-7-one]
ICP/BP (rat corpora cavernosa): 86.3 ± 6.4 | IC50 (PDE6 from bovine retina): 235 nM | PDE6 IC50/PDE5 IC50 (PDE6 from bovine retina): 23.9 | IC50 (PDE3): 16300 nM | IC50 ([1]; PDE5 from human platelets): 9.81 nM | IC50 [1, 2]: 9.81 nM | Number of death (male KM mouse): 0 | mortality rate (male KM mouse): 0%

CCCOc1ccc(S(=O)(=O)N(C)CCOC(C)=O)cc1-c1nc2c(CCC)nn(C)c2c(=O)[nH]1 [Example 33, 1-methyl-5-{2-propoxy-5-[[1-methyl-1-(2-acetoxyethyl)]amidosulfonyl]phenyl}-3-n-propyl-1,6-dihydro-7H-pyrazolo[4,3-d]pyrimidin-7-one]
ICP/BP (rat corpora cavernosa): 72.3 ± 28.6 | IC50 (PDE3): 30400 nM

CCCOc1ccc(S(=O)(=O)N(CCCOC(C)=O)CCCOC(C)=O)cc1-c1nc2c(CCC)nn(C)c2c(=O)[nH]1 [Example 93, 1-methyl-5-{2-propoxy-5-[bis(3-acetoxypropyl)amidosulfonyl]phenyl}-3-n-propyl-1,6-dihydro-7H-pyrazolo[4,3-d]pyrimidin-7-one]
ICP/BP (rat corpora cavernosa): 77.2 ± 24.8 | IC50 (PDE3): 6000 nM | IC50 ([1]; PDE5 from human platelets): 3.8 nM | Number of death (male KM mouse): 0 | mortality rate (male KM mouse): 0%

From patent US20080318949A1, “Pyrazolopyrimidinone Derivatives, Their Preparation And Their Use” (Topharman Shanghai Co., Ltd, priority 2005, published 2008)
